According to the NIST ThermoML archive (doi:10.1016/j.jct.2004.05.008):
± gives the expanded uncertainty stated by the source.

Experiments:
[1] = Crystal
[2] = Molar enthalpy of transition or fusion; details: Crystal
[3] = molar heat capacity at constant pressure; details: 101.33 kPa

O=C1OC(=O)C2=C1CCCC2 [3,4,5,6-tetrahydrophthalic anhydride]
Details	Molar enthalpy of transition or fusion [kcal/mol]	Triple point temperature [K]
[1]	–	343.46 ± 0.25
[2]	2.839 ± 0.0143	–

[3]
Details	molar heat capacity at constant pressure [J/K/mol]
80.34 K, Crystal	56.23 ± 0.63
83.47 K, Crystal	56.18 ± 0.63
86.53 K, Crystal	56.31 ± 0.64
89.58 K, Crystal	56.4 ± 0.64
92.48 K, Crystal	56.87 ± 0.69
95.3 K, Crystal	57.18 ± 0.7
98.08 K, Crystal	57.46 ± 0.7
100.82 K, Crystal	57.84 ± 0.7
103.56 K, Crystal	57.96 ± 0.71
106.09 K, Crystal	58.31 ± 0.71
108.63 K, Crystal	58.53 ± 0.71
111.12 K, Crystal	58.74 ± 0.71
113.61 K, Crystal	59.12 ± 0.71
116.02 K, Crystal	59.31 ± 0.71
118.43 K, Crystal	59.66 ± 0.71
120.75 K, Crystal	60.05 ± 0.72
123.08 K, Crystal	60.42 ± 0.72
125.35 K, Crystal	60.99 ± 0.72
127.64 K, Crystal	61.14 ± 0.73
129.84 K, Crystal	61.87 ± 0.73
132.12 K, Crystal	62.27 ± 0.74
134.33 K, Crystal	62.87 ± 0.74
136.53 K, Crystal	63.57 ± 0.75
138.65 K, Crystal	64.15 ± 0.75
140.81 K, Crystal	64.74 ± 0.76
142.92 K, Crystal	65.78 ± 0.77
145.08 K, Crystal	66.49 ± 0.77
147.12 K, Crystal	67.22 ± 0.77
149.15 K, Crystal	68.03 ± 0.78
151.27 K, Crystal	69 ± 0.79
153.3 K, Crystal	69.87 ± 0.8
155.3 K, Crystal	70.76 ± 0.81
157.37 K, Crystal	71.32 ± 0.81
159.37 K, Crystal	72.03 ± 0.81
161.36 K, Crystal	72.91 ± 0.82
163.27 K, Crystal	73.95 ± 0.83
165.22 K, Crystal	74.97 ± 0.84
167.13 K, Crystal	76.01 ± 0.85
169.12 K, Crystal	76.73 ± 0.85
171.05 K, Crystal	77.91 ± 0.86
172.94 K, Crystal	78.5 ± 0.86
174.85 K, Crystal	79.78 ± 0.87
176.72 K, Crystal	80.51 ± 0.88
178.63 K, Crystal	81.53 ± 0.89
180.46 K, Crystal	82.71 ± 0.9
182.28 K, Crystal	83.6 ± 0.91
184.11 K, Crystal	84.61 ± 0.91
185.95 K, Crystal	85.45 ± 0.92
187.77 K, Crystal	86.62 ± 0.93
189.63 K, Crystal	87.81 ± 0.94
191.38 K, Crystal	88.82 ± 0.95
193.21 K, Crystal	89.85 ± 0.96
194.95 K, Crystal	91.18 ± 0.96
196.74 K, Crystal	92.52 ± 0.98
198.56 K, Crystal	93.84 ± 0.99
200.32 K, Crystal	95.12 ± 1
202.04 K, Crystal	96 ± 1
203.79 K, Crystal	97.45 ± 1
205.5 K, Crystal	99.08 ± 1
207.28 K, Crystal	100.34 ± 1
208.94 K, Crystal	101.59 ± 1.1
210.65 K, Crystal	102.87 ± 1.1
212.31 K, Crystal	103.87 ± 1.1
214.01 K, Crystal	105.32 ± 1.1
215.67 K, Crystal	106.26 ± 1.1
217.29 K, Crystal	107.56 ± 1.1
218.95 K, Crystal	108.78 ± 1.1
220.53 K, Crystal	109.96 ± 1.1
222.27 K, Crystal	111.19 ± 1.1
223.72 K, Crystal	112.09 ± 1.1
225.46 K, Crystal	113.46 ± 1.1
227.04 K, Crystal	114.91 ± 1.2
228.58 K, Crystal	116.07 ± 1.2
230.24 K, Crystal	117.61 ± 1.2
231.74 K, Crystal	119.05 ± 1.2
233.19 K, Crystal	120.59 ± 1.2
234.7 K, Crystal	122.14 ± 1.2
236.22 K, Crystal	123.06 ± 1.2
237.68 K, Crystal	124.72 ± 1.2
239.17 K, Crystal	126.14 ± 1.3
240.66 K, Crystal	127.28 ± 1.3
242.12 K, Crystal	128.82 ± 1.3
243.56 K, Crystal	131.28 ± 1.3
244.92 K, Crystal	131.95 ± 1.3
246.4 K, Crystal	132.94 ± 1.3
247.8 K, Crystal	133.95 ± 1.3
249.31 K, Crystal	135.13 ± 1.3
250.75 K, Crystal	136.4 ± 1.3
252.21 K, Crystal	137.63 ± 1.3
253.66 K, Crystal	138.64 ± 1.4
255.1 K, Crystal	140.01 ± 1.4
256.48 K, Crystal	141.43 ± 1.4
257.94 K, Crystal	143.17 ± 1.4
259.38 K, Crystal	144.54 ± 1.4
260.76 K, Crystal	146.26 ± 1.4
262.22 K, Crystal	147.86 ± 1.4
263.56 K, Crystal	149.6 ± 1.4
264.98 K, Crystal	151.29 ± 1.5
266.44 K, Crystal	153.66 ± 1.5
267.8 K, Crystal	155.02 ± 1.5
269.17 K, Crystal	156.54 ± 1.5
270.62 K, Crystal	158.31 ± 1.5
271.99 K, Crystal	160.29 ± 1.5
273.83 K, Crystal	162.61 ± 1.5
276.06 K, Crystal	165.27 ± 1.6
278.26 K, Crystal	168.2 ± 1.6
280.47 K, Crystal	170.86 ± 1.6
282.77 K, Crystal	174.18 ± 1.6
285 K, Crystal	177.2 ± 1.7
287.13 K, Crystal	180 ± 1.7
289.24 K, Crystal	183.15 ± 1.7
291.4 K, Crystal	185.52 ± 1.7
293.54 K, Crystal	188.07 ± 1.8
295.62 K, Crystal	190.23 ± 1.8
297.76 K, Crystal	193.49 ± 1.8
299.9 K, Crystal	196.12 ± 1.8
302.04 K, Crystal	198.91 ± 1.8
304.16 K, Crystal	201.6 ± 1.9
306.28 K, Crystal	204.33 ± 1.9
308.44 K, Crystal	208.09 ± 1.9
310.59 K, Crystal	210.93 ± 1.9
312.73 K, Crystal	214.84 ± 2
314.77 K, Crystal	218 ± 2
316.97 K, Crystal	220.39 ± 2
319 K, Crystal	224.36 ± 2.1
321.06 K, Crystal	227.34 ± 2.1
323.12 K, Crystal	231.9 ± 2.1
325.11 K, Crystal	237.01 ± 2.2
327.12 K, Crystal	241.19 ± 2.2
329.09 K, Crystal	246.67 ± 2.2
330.99 K, Crystal	261.9 ± 2.4
346.46 K, Liquid	275.09 ± 2.6
348.18 K, Liquid	275.94 ± 2.6
350 K, Liquid	277.07 ± 2.6
351.67 K, Liquid	278.18 ± 2.6
353.41 K, Liquid	279.59 ± 2.6
355.08 K, Liquid	280.65 ± 2.6
356.67 K, Liquid	281.82 ± 2.7
360.3 K, Liquid	284.63 ± 2.7
